Reference: the supplement of paper PMC8671470

Key:
Conditions in all cases: 72 h
NOMO-1 [1] = system: NOMO-1
Method in brief: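 Each of fifteen myeloid leukaemia cell lines was seeded in RPMI 1640 at a density titrated to its linear growth range. The cells were incubated for 72 h at 37 °C and 5% CO2 with compounds at five tenfold doses from 1 to 10,000 nM, in duplicate. After ATP luminescence was normalised to vehicle and to a positive control at 10 µM, four-parameter log-logistic curves were fitted. These curves gave the IC50.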

MOLM-13 = test: cell viability (% survival relative to DMSO control, bortezomib = 0%); higher = less cytotoxic
Method in brief: (§1)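 After 72 h at 37 °C with 5% CO2, cell viability in 384-well plates was measured by CellTiter-Glo luminescence. The plates held compounds pre-printed at 1, 10, 100, 1000 or 10000 nM in duplicate, and cells from 10 AML and 5 CML lines seeded at densities titrated to linear growth. Percent survival is the duplicate mean, normalised to vehicle as 100% and a 10 µM positive control as 0%.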

BV-173 = test: as above
Method in brief: as §1

K-562 = test: as above
Method in brief: as §1

NOMO-1 [2] = test: as above
Method in brief: as §1

MV4-11 = test: as above
Method in brief: as §1

Mono-Mac-6 = test: as above
Method in brief: as §1

SHI-1 = test: as above
Method in brief: as §1

LAMA-84 = test: as above
Method in brief: as §1

KCL-22 = test: as above
Method in brief: as §1

ML-2 = test: as above
Method in brief: as §1

KU-812 = test: as above
Method in brief: as §1

HEL = test: as above
Method in brief: as §1

THP-1 = test: as above
Method in brief: as §1

KG-1 = test: as above
Method in brief: as §1

HL-60 [3] = test: as above
Method in brief: as §1

HL-60 [4] = test: cell viability (% survival relative to DMSO control); higher = less cytotoxic
Method in brief: (§2)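 A rescreen of the full library used HL-60 cells in RPMI 1640 with 10% FBS on 384-well plates, run in duplicate at five tenfold concentrations (1–10,000 nM). Each screen included DMSO or 100 nM of one of three metabolic inhibitors and ran 72 h at 37 °C, 5% CO2. CellTiter-Glo viability was scaled between DMSO and 10 μM proteasome-inhibitor wells. Any area under the curve comes from four-parameter log-logistic fits with drc and PharmacoGx.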

HL-60 [5] = test: area under dose-response curve (viability, 1 nM-10 uM) (fraction (0-1)); higher = more sensitive
Method in brief: as §2

CNC(=C[N+](=O)[O-])NCCSCc1ccc(CN(C)C)o1 [Ranitidine]
Conditions | IC50 (cell viability) [µM]
NOMO-1 [1] | > 10

Conditions | area under dose-response curve, co-treatment: AZD3965 100 nM | area under dose-response curve, co-treatment: DMSO vehicle | area under dose-response curve, co-treatment: GSK2194069 100 nM | area under dose-response curve, co-treatment: pictilisib 100 nM | cell viability, 1 nM [%] | cell viability, 10 nM [%] | cell viability, 100 nM [%] | cell viability, 1000 nM [%] | cell viability, 10000 nM [%]
BV-173 | – | – | – | – | 96.7 | 96.1 | 105 | 96.9 | 108
HEL | – | – | – | – | 113 | 104 | 107 | 104 | 92.4
HL-60 [3] | – | – | – | – | 98.1 | 156 | 97.5 | 95.5 | 121
HL-60 [5] | < 0.0301 | < 0.0301 | < 0.0301 | < 0.0301 | – | – | – | – | –
K-562 | – | – | – | – | 108 | 92.1 | 93.5 | 97.3 | 103
KCL-22 | – | – | – | – | 100 | 101 | 103 | 109 | 92.9
KG-1 | – | – | – | – | 104 | 85.8 | 126 | 174 | 163
KU-812 | – | – | – | – | 109 | 101 | 97.4 | 96.8 | 107
LAMA-84 | – | – | – | – | 107 | 89.3 | 105 | 104 | 102
ML-2 | – | – | – | – | 97.4 | 113 | 101 | 100 | 98.9
MOLM-13 | – | – | – | – | 97.9 | 94.2 | 91.6 | 102 | 117
MV4-11 | – | – | – | – | 98.5 | 109 | 108 | 114 | 104
Mono-Mac-6 | – | – | – | – | 94.6 | 96.6 | 115 | 95.6 | 113
NOMO-1 [2] | – | – | – | – | 96.3 | 96.2 | 108 | 98.7 | 101
SHI-1 | – | – | – | – | 98.6 | 107 | 96.4 | 122 | 104
THP-1 | – | – | – | – | 105 | 103 | 98.2 | 99.6 | 102

cell viability [%], HL-60 [4]
Conditions | 0.001 µM | 0.01 µM | 0.1 µM | 1 µM | 10 µM
co-treatment: AZD3965 100 nM | 103 | 102 | 99.6 | 107 | 100
co-treatment: DMSO vehicle | 104 | 87.7 | 105.91 | 106.4 | 96.1
co-treatment: GSK2194069 100 nM | 94.3 | 89.5 | 108 | 106 | 102
co-treatment: pictilisib 100 nM | 95.9 | 70.3 | 98.5 | 110 | 96.9

CCCCCCCCCCCCC/C=C/[C@@H](O)[C@H](CO)N(C)C [N,N-Dimethylsphingosine]
Conditions | IC50 (cell viability) [µM]
NOMO-1 [1] | > 10

Conditions | area under dose-response curve, co-treatment: AZD3965 100 nM | area under dose-response curve, co-treatment: DMSO vehicle | area under dose-response curve, co-treatment: GSK2194069 100 nM | area under dose-response curve, co-treatment: pictilisib 100 nM | cell viability, 1 nM [%] | cell viability, 10 nM [%] | cell viability, 100 nM [%] | cell viability, 1000 nM [%] | cell viability, 10000 nM [%]
BV-173 | – | – | – | – | 93 | 89.7 | 98.7 | 74.2 | 22.5
HEL | – | – | – | – | 96.2 | 94.6 | 103 | 96.2 | 0.109
HL-60 [3] | – | – | – | – | 90.6 | 84.7 | 100 | 105 | 88.9
HL-60 [5] | 0.132 | 0.132 | < 0.0301 | 0.0441 | – | – | – | – | –
K-562 | – | – | – | – | 97.4 | 95.2 | 103 | 104 | 85.6
KCL-22 | – | – | – | – | 95.8 | 98 | 101 | 91.3 | 1.85
KG-1 | – | – | – | – | 92.2 | 96.8 | 101 | 82.7 | 37.4
KU-812 | – | – | – | – | 101 | 90.5 | 103 | 102 | 55
LAMA-84 | – | – | – | – | 101 | 96.7 | 106 | 91.3 | 93.3
ML-2 | – | – | – | – | 95.1 | 96.8 | 97.7 | 107 | -0.179
MOLM-13 | – | – | – | – | 97.3 | 96.5 | 86.2 | 104 | 71.1
MV4-11 | – | – | – | – | 94.2 | 102 | 95 | 117 | 95.8
Mono-Mac-6 | – | – | – | – | 95.1 | 91.7 | 97.9 | 89.4 | 70
NOMO-1 [2] | – | – | – | – | 92 | 101 | 100 | 94.1 | 85.8
SHI-1 | – | – | – | – | 101 | 97.8 | 104 | 97.8 | 83.8
THP-1 | – | – | – | – | 97.5 | 100 | 105 | 89.7 | 61.7

cell viability [%], HL-60 [4]
Conditions | 0.001 µM | 0.01 µM | 0.1 µM | 1 µM | 10 µM
co-treatment: AZD3965 100 nM | 95.3 | 103 | 100 | 100.26 | -1.76
co-treatment: DMSO vehicle | 98.6 | 98.5 | 102 | 97.42 | 54.1
co-treatment: GSK2194069 100 nM | 90.2 | 98.3 | 103 | 97.23 | 86.6
co-treatment: pictilisib 100 nM | 87.6 | 112 | 106 | 96.1 | 62.7
